The values that follow come from US20230009323A1, “COMPOUNDS AND METHODS FOR THE TREATMENT OF CRYPTOSPORIDIOSIS” (The Broad Institute, Inc., priority 2019, published 2023).

Each structure is given as a SMILES string.

Experiment [1] has as its system C. parvum WT transgenic PheRS (wtL482). As to the kind of experiment: In vitro drug susceptibility in HCT-8 cells, luminescence, wild type transgenic. The conditions noted are these: Cryptosporidium parvum, HCT-8, 48 h, read-out: EC50, wild type transgenic. Format: cell-based. The method, then: The in vitro drug susceptibility assay using transgenic parasites expressing Nluc was performed as described in Vinyak et al. Briefly, host intestinal epithelial adenocarcinoma (HCT-8) cells grown in 96-well plates were infected with purified transgenic Nluc-expressing oocysts (1,000 oocysts per well) and incubated with different concentrations of Compound 11 for 48 hours. Culture supernatant was discarded from the wells after 48 hours, and 200 μl of NanoGlo lysis buffer containing 1:50 of NanoGlo substrate (Promega) was added to the wells. Lysates were transferred to white 96-well plates and luminescence was measured on a Glomax luminescence reader (Promega). EC50 values were calculated in GraphPad Prism software v7.
Oocysts from the mutant (mut482V) and wild type (wtL482) transgenic lines were purified as well as the parent strain (Bunchgrass) used to generate the transgenics. Sporozoites were excised from these oocysts and used to infect 96 well format HCT-8 cultures to perform in vitro drug susceptibility assays. Cultures were incubated for 48 hours in the presence of varying concentrations of Compound 11 and parasite growth was measured by establishing whole well luciferase activity to calculate EC50 values for each strain.

The test system of experiment [2] is C. hominis (TU 502). As to the kind of experiment: C. hominis TU502 growth in HCT-8 cells. Format: cell-based. To be noted: Cryptosporidium hominis. As to the method:
(§1) Studies using farm C. parvum isolates and the C. hominis TU502 isolate were performed by Calibr at Scripps Research (La Jolla, Calif.) in 1,536-well plates using a slightly modified immunofluorescence assay as described in Love, M. S. et al. PLoS neglected tropical diseases 11, e0005373, doi:10.1371/journal.pntd.0005373 (2017), hereby incorporated by reference in its entirety. HCT-8 cell culture medium was replaced with RPMI 1640 medium supplemented with 2% heat-inactivated horse serum, 100 U·mL^−1 penicillin, and […] 24 h prior to infection with the indicated isolate. The C. parvum Iowa isolate was included as a reference in all experiments. Imaging was performed using a Cellnsight CX5 High Content screening platform (Thermo Scientific) with a 10× objective and acquisition of one microscopic field per well. Images were processed using HCS Studio Scan software, and the selected-object count (HCT-8 cells) and spot count (parasitophorous vacuoles) were analyzed in Genedata Screener (version 13.0; Standard). Dose-response curves and EC50 values were calculated using the Smart Fit function of Genedata Analyzer.

For experiment [3], the target named is recombinant C. hominis PheRS (ChPheRS) (Cryptosporidium hominis, UniProt A0A0S4TD72). As to the kind of experiment: C. hominis PheRS aminoacylation assay. Format: biochemical. The conditions noted are these: aminoacylation activity. The method, then:
The protein sequences of C. hominis PheRS alpha (Chro.30378) and beta subunits (Chro.80385) were retrieved from the Crypto DB (https://cryptodb.org/cryptodb/). Genes were inserted to pETM 11 and pETM 20 vectors and both alpha and beta subunits were co-expressed in E. coli B834 competent cells. Recombinant proteins were expressed by growing cells at 37° C. to OD600 of 0.6-0.8, followed by induction with 0.6 mM isopropyl β-d-1-thiogalactopyranoside (IPTG). The cells were later harvested by centrifugation at 5,000×g and cell pellet suspended in a buffer containing 50 mM Tris-HCl (pH 8.8), 200 mM NaCl, 4 mM [3-mercaptoethanol, 10% (v/v) glycerol, 0.1 mg ml-1 lysozyme and 1 mM phenylmethylsulfonyl fluoride (PMSF)]. The bacterial cells were lysed using sonication and cleared by centrifugation at 20,000×g for 45 mins. […]

For experiment [4], the system named is C. parvum (Iowa isolate). As to the kind of experiment: EdU incorporation (DNA synthesis) assay of intracellular development in HCT-8 cells. Format: cell-based, Cryptosporidium parvum. To be noted: 2×EC90; FIG. 6A legend says EC90. The method, then: DNA synthesis was assayed during intracellular development of C. parvum (Iowa isolate) within HCT-8 cells by measuring incorporation of the thymidine analogue 5-ethynyl-2′-deoxyuridine (EdU) using epifluorescence microscopy as described in Jumani, R. S. et al. Nat Commun 10, 1862, doi:10.1038/s41467-019-09880-w (2019), hereby incorporated by reference in its entirety. HCT-8 cells were grown to >90% confluence in 96-well plates coated with 50 μg mL^−1 fibronectin (BD Pharmingen, catalog #354008), and then infected using the method described above with ˜5.5×10^4 C. parvum Iowa isolate oocysts per well. Compound 11 was added at 2×EC90 3 hours after infection, followed by incubation for 6 hours and then addition of […] EdU. After incubation for two more hours, the monolayers were washed and fixed with 4% formaldehyde in saline. Cells were then permeabilized, and stained with FITC-Vicia villosa lectin, Hoechst 33258, and for incorporation of EdU using the Click-iT assay kit (Thermo Fisher Scientific). Images were acquired by focusing on the parasite focal plane on top of the host cell monolayer using a 40× objective (0.7 NA), and parasitophorous vacuoles and EdU positive vacuoles were quantified using NIH ImageJ software.

In experiment [5] the test system is C. parvum (Iowa) Sterling. As to the kind of experiment: C. parvum (Iowa) Sterling growth in HCT-8 cells. Format: cell-based. The conditions noted are these: Cryptosporidium parvum. The method, then:
as §1

Experiment [6] concerns cytosolic PfcPheRS. The conditions noted are these: previously reported; cited from earlier work.
For experiment [7], the system named is C. parvum (Field Isolate) WSU. As to the kind of experiment: C. parvum field isolate (WSU) growth in HCT-8 cells. Type of experiment: cell-based. To be noted: Cryptosporidium parvum. As to the method:
as §1

In general, EC50 refers to the concentration at which the effect is half-maximal. By IC50 is commonly meant the concentration needed to halve the response being measured. For the compound `COc1ccc(NC(=O)N2CCCCN3[C@H](CN(C)C)[C@H](c4ccc(C#Cc5ccccc5)cc4)[C@@H]3C2)cc1` [Compound 11, (8R,9S,10S)-10-((dimethylamino)methyl)-N-(4-methoxyphenyl)-9-(4-(phenylethynyl)phenyl)-1,6-diazabicyclo[6.2.0]decane-6-carboxamide], the EC50 in experiment [1] worked out at 0.047 µM; in experiment [2], 0.01 µM; in experiment [5], 0.008 µM; in experiment [7], 0.023 µM. The half-inhibitory concentration (IC50) in experiment [3] is 0.06 µM; in experiment [6], 0.023 µM. Moreover, the “intracellular parasite development (EdU incorporation)” value in experiment [4] is reported as “strongly inhibited intracellular parasite development”.
